Data: patent US6706740B2, “Fungicidal heterocyclic aromatic amides and their compositions, methods of use and preparation” (Dow AgroSciences LLC, priority 1999, dated 2004)
Read-outs that look alike come from different tables or passages of the source.

Legend:
[1] = system: Magnaporthe grisea (Pyricularia oryzae—PYRIOR); assay: microbe, parasite or virus in culture; format: cell-based; details: Pyricularia oryzae, read-out: PYRIOR in vitro Growth Inhibition
[2] = system: Rhizoctonia solani (RHIZSO); assay: microbe, parasite or virus in culture; format: cell-based; details: Rhizoctonia solani, read-out: RHIZSO in vitro Growth Inhibition
[3] = system: Mycosphaerella graminicola (Septoria tritici—SEPTTR); assay: In vitro fungal growth inhibition, Mycosphaerella graminicola (SEPTTR); format: cell-based; details: Zymoseptoria tritici, read-out: SEPTTR in vitro Growth Inhibition
[4] = system: Stagonospora nodorum (Leptosphaeria nodorum—LEPTNO); assay: In vitro fungal growth inhibition, Stagonospora nodorum (LEPTNO); format: cell-based; details: Leptosphaeria, read-out: LEPTNO in vitro Growth Inhibition
[5] = system: Ustilago maydis (USTIMA); assay: microbe, parasite or virus in culture; format: cell-based; details: Mycosarcoma maydis, read-out: USTIMA in vitro Growth Inhibition
[6] = system: Phytophthora infestans (PHYTIN); assay: microbe, parasite or virus in culture; format: cell-based; details: Phytophthora infestans, read-out: PHYTIN in vitro Growth Inhibition
[7] = system: Phytophthora infestans—PHYTIN; assay: whole plant or invertebrate; format: in vivo; details: Phytophthora, in Solanum lycopersicum, 24 h, read-out: PHYTIN in vivo 1 Day Protectant
[8] = system: Puccinia recondita—PUCCRT; assay: Brown Rust of Wheat, in vivo whole plant, 24 Hour Protectant; details: for PUCCRT in vivo 1 Day Protectant: % control of fungal infection vs untreated plants; for pest or weed control at 100 ppm: Puccinia, control of fungal infection vs untreated plants, read-out: PUCCRT in vivo 1 Day Protectant
[9] = system: Erysiphe graminis—ERYSGT; assay: Powdery Mildew of Wheat, in vivo whole plant, 24 Hour Protectant; details: Erysiphe, read-out: ERYSGT in vivo 1 Day Protectant
[10] = system: Septoria tritici—SEPTTR; assay: Leaf Blotch of Wheat, in vivo whole plant, 24 Hour Protectant; details: for SEPTTR in vivo 1 Day Protectant: % control of fungal infection vs untreated plants; for pest or weed control at 100 ppm: Zymoseptoria tritici, 24 h, control of fungal infection vs untreated plants, read-out: SEPTTR in vivo 1 Day Protectant
[11] = system: Leptosphaeria nodorum—LEPTNO; assay: Glume Blotch of Wheat, in vivo whole plant, 24 Hour Protectant; details: for pest or weed control at 100 ppm: Leptosphaeria, read-out: LEPTNO in vivo 1 Day Protectant
[12] = 100 ppm spray, wheat, 24 hour protectant
[13] = 100 ppm spray, wheat, 24 hour protectant, % control of fungal infection vs untreated plants
[14] = wheat plants sprayed at 100 ppm, inoculated after 24 hours
[15] = wheat plants sprayed at 100 ppm, inoculated after 24 hours, control of fungal infection vs untreated plants
[16] = 100 ppm spray, wheat, 24 hour protectant, control of fungal infection vs untreated plants

Compound | inhibition at 25 ppm [1] | inhibition at 25 ppm [2] | inhibition at 25 ppm ([3]; 25 ppm in growth medium) | inhibition at 25 ppm ([4]; 25 ppm in growth medium) | inhibition at 25 ppm [5] | inhibition at 25 ppm [6] | pest or weed control at 100 ppm [7] | pest or weed control at 100 ppm [8, 12] | pest or weed control at 100 ppm [9, 16] | pest or weed control at 100 ppm [10, 12] | also measured
C/C=C/C(=O)Oc1c(OC)ccnc1C(=O)N[C@H]1COC(=O)[C@H](Cc2ccccc2)[C@@H](OC(=O)C(C)C)[C@H](C)OC1=O [Compound 600] | > 80% | < 80% | < 80% | > 80% | < 80% | < 80% | < 25% |  |  |  | PUCCRT in vivo 1 Day Protectant [8, 12]: + +; pest or weed control at 100 ppm [9, 13]: < 25%; SEPTTR in vivo 1 Day Protectant [10, 12]: + +; LEPTNO in vivo 1 Day Protectant [11, 13]: + +
CC(NC(=O)c1ccncc1O)c1ccc(Oc2ccccc2)cc1 (centres unmarked) [Compound 512] | < 80% | < 80% |  |  | < 80% | < 80% | 25 to 74% |  |  |  | inhibition at 25 ppm ([3]; 25 ppm in the growth medium): < 80%; inhibition at 25 ppm ([4]; 25 ppm in the growth medium): < 80%; pest or weed control at 100 ppm [8, 14]: < 25%; pest or weed control at 100 ppm [9, 15]: < 25%; pest or weed control at 100 ppm [10, 14]: < 25%; pest or weed control at 100 ppm [11, 15]: < 25%
COc1ccnc(C(=O)N[C@H]2C[C@@H](C(F)(F)F)C[C@@H](C(F)(F)F)C2)c1OC(C)=O [Compound 576] | < 80% | < 80% |  |  | < 80% | < 80% | < 25% |  |  |  | inhibition at 25 ppm ([3]; 25 ppm in the growth medium): < 80%; inhibition at 25 ppm ([4]; 25 ppm in the growth medium): < 80%; pest or weed control at 100 ppm [8, 14]: 25 to 74%; pest or weed control at 100 ppm [9, 15]: < 25%; pest or weed control at 100 ppm [10, 14]: 25 to 74%; pest or weed control at 100 ppm [11, 15]: 25 to 74%
COc1ccnc(C(=O)N[C@H]2COC(=O)[C@H](Cc3ccccc3)[C@@H](OC(=O)C3CCCCC3)[C@H](C)OC2=O)c1O [Compound 392] | > 80% | < 80% | > 80% | > 80% | < 80% | < 80% | < 25% | 25 to 74% | 25 to 74% | 25 to 74% | LEPTNO in vivo 1 Day Protectant [11, 16]: + +
CO/N=C(/c1ccc(NC(=O)c2nccc(OC)c2O)cc1)c1ccc(C(F)(F)F)cc1 [Compound 409] | > 80% | < 80% | > 80% | > 80% | < 80% | > 80% | 25 to 74% | 25 to 74% | 25 to 74% | 25 to 74% | LEPTNO in vivo 1 Day Protectant [11, 16]: + +
COc1ccnc(C(=O)Nc2ccc(Oc3ccc(Cl)cc3)cc2)c1O [Compound 443] | < 80% | < 80% | < 80% | > 80% | < 80% | < 80% | < 25% | 25 to 74% | < 25% | < 25% | pest or weed control at 100 ppm [11, 16]: < 25%
COc1ccnc(C(=O)N[C@H]2COC(=O)[C@H](Cc3ccccc3)[C@@H](OC(=O)C(C)C)[C@H](C)OC2=O)c1OC(=O)C1CCCCC1 [Compound 612] | < 80% | < 80% | < 80% | > 80% | < 80% | < 80% | < 25% |  |  |  | PUCCRT in vivo 1 Day Protectant [8, 12]: + +; pest or weed control at 100 ppm [9, 13]: < 25%; SEPTTR in vivo 1 Day Protectant [10, 12]: + +; LEPTNO in vivo 1 Day Protectant [11, 13]: + +
